Legend:
[1] = Respective studies with other long-acting insulins; assay type: in vivo; conditions: no data given
From the text: The results of the ORIGIN study were obtained with the long-lasting insulin glargine.

[2] = tested on: critical-care post-surgical patients; conditions: intervention group: insulin infusion to blood glucose 80-110 mg/dL; cited from earlier work
[3] = tested on: diabetic patients hospitalized with acute MI; conditions: IV insulin-glucose infusion then chronic insulin vs standard treatment; cited from earlier work

Substance	results of respective studies compared with the ORIGIN results of insulin glargine [1]	overall mortality at twelve-months follow-up [2] [%]	reduction of all-cause mortality [3] [%]
insulin detemir	comparable results		
insulin degludec	comparable results		
insulin: insulin infusion or chronic insulin treatment in cited DIGAMI and Belgian ICU studies		8.0	28
